Results on 1 molecule are retold here after patent US20040192771A1, “Ether compounds and compositions for cholesterol management and related uses” (priority 2001, published 2004).

The IC50 is the point on the concentration scale where inhibition reaches its midpoint.

Molecules are shown by their SMILES. Read-outs that look alike come from different tables or passages of the source.

The test system of test [1] is obese female Zucker rats. The experiment in a line: Oral daily treatment of obese female Zucker rats for fourteen days; serum lipids and glycemic control indicators. Type of test: in vivo. The settings on record: Rattus norvegicus, 168 h; percent change from study prebleed; week 1; 97 mg/kg/day oral; read-out: HDL-C.
Test [2] has as its system primary rat hepatocytes. The experiment in a line: Inhibition of lipid synthesis ([1-14C]-acetate incorporation) in primary cultures of rat hepatocytes. The test is classed as cell-based. As to conditions: Hepatocyte, total lipid synthesis, 4 hours incubation. As to the method: Compounds were tested for inhibition of lipid synthesis in primary cultures of rat hepatocytes. Male Sprague-Dawley rats were anesthetized with intraperitoneal injection of sodium pentobarbital (80 mg/kg). Rat hepatocytes were isolated essentially as described by the method of Seglen (Seglen, P. O. Hepatocyte suspensions and cultures as tools in experimental carcinogenesis. J. Toxicol. Environ. Health 1979, 5, 551-560). Hepatocytes were suspended in Dulbecco's Modified Eagles Medium containing 25 mM D-glucose, 14 mM HEPES, 5 mM L-glutamine, 5 mM leucine, 5 mM alanine, 10 mM lactate, 1 mM pyruvate, 0.2% bovine serum albumin, 17.4 mM non-essential amino acids, 20% fetal bovine serum, 100 nM insulin and 20 μg/mL gentamycin) and plated at a density of 1.5×10^5 cells/cm^2 on collagen-coated 96-well plates. Four hours after plating, media was replaced with the same media without serum. Cells were grown overnight to allow formation of monolayer cultures. Lipid synthesis incubation conditions were initially assessed to ensure the linearity of [1-^14C]-acetate incorporation into hepatocyte lipids for up to 4 hours. Hepatocyte lipid synthesis inhibitory activity was assessed during incubations in the presence of 0.25 μCi [1-^14C]-acetate/well (final radiospecific activity in assay is 1 Ci/mol) and 0, 1, 3, 10, 30, 100 or 300 μM of compounds for 4 hours. At the end of the 4-hour incubation period, medium was discarded and cells were washed twice with ice-cold phosphate buffered saline and stored frozen prior to analysis. To determine total lipid synthesis, 170 μl of MicroScint-E® and 50 μl water was added to each well to extract and partition the lipid soluble products to the upper organic phase containing the scintillant. Lipid radioactivity was assessed by scintillation spectroscopy in a Packard TopCount NXT.

Test [3] concerns obese female Zucker rats. The experiment in a line: Oral daily treatment of obese female Zucker rats for fourteen days; serum lipids and glycemic control indicators. The test is classed as in vivo. As to conditions: Rattus norvegicus, percent change from study prebleed, 97 mg/kg/day oral. As to the method: In a number of different experiments, illustrative compounds of the invention are administered daily at a dose of up to 100 mg/kg to chow fed obese female Zucker rats for fourteen days in the morning by oral gavage in 1.5% carboxymethylcellulose/0.2% Tween 20 or 20% ethanol/80% polyethylene glycol (dosing vehicles). Animals are weighed daily. Animals are allowed free access to rodent chow and water throughout the study except on days of blood sampling where food is restricted for six hours prior to blood sampling. Blood glucose is determined after the 6 hour fast in the afternoon without anesthesia from a tail vein. Serum is also prepared from pretreatment blood samples subsequently obtained from the orbital venous plexus (with O2/CO2 anesthesia) and following the fourteenth dose at sacrifice from the heart following O2/CO2 anesthesia. Serums are assayed for lipoprotein cholesterol profiles, triglycerides, total cholesterol, Non HDL cholesterol, HDL cholesterol, the ratio of HDL cholesterol to that of Non HDL cholesterol, insulin, non esterified fatty acids, and beta hydroxy butyric acid. The percent body weight gain and the ratio of liver to body weight is also determined. These are shown as absolute values or as a percent change of the pretreatment values in Table C. [drawing 479] [drawing 480]

For `CC(C)(CO)CCCC1CCC(CCCC(C)(C)CO)O1` (stereo not shown) [Compound 138, 5-[5-(5-Hydroxy-4,4-dimethylpentyl)-tetrahydrofuran-2-yl]-2,2-dimethylpentan-1-ol], the change in vivo at 97 mg/kg/day in test [1] was 287%; in test [3] (168 h, week 1, read-out: Glucose) it was 35%; in test [3] (168 h, week 1, read-out: Insulin), 43%; in test [3] (168 h, week 1, read-out: Non-HDL-C) it was 11%; in test [3] (168 h, week 1, read-out: TC) it was 128%; in test [3] (168 h, week 1, read-out: TG), -49%. Further, the change in vivo at 97 mg/kg/day in test [3] (336 h, week 2, read-out: Glucose) is 10%; in test [3] (336 h, week 2, read-out: HDL-C) it was 140%; in test [3] (336 h, week 2, read-out: Insulin), 69%; in test [3] (336 h, week 2, read-out: Non-HDL-C), 31%; in test [3] (336 h, week 2, read-out: TC), 74%; in test [3] (336 h, week 2, read-out: TG) it was -13%. In test [2], the IC50 turned out to be 9 µM.
